Results published in paper PMC8383318, “Preclinical Pharmacokinetics, Tissue Distribution, and Primary Safety Evaluation of Indo5, a Novel Selective Inhibitor of c-Met and Trks” (Frontiers in Pharmacology, 2021).

Legend:
[1] = system: HCC cells; set-up: method as in Luo et al., 2019; conditions: ref Luo et al., 2019, cited from earlier work
[2] = set-up: species or system mice; conditions: mouse, in vivo, po, 60 mg/kg
[3] = Pharmacokinetic study in rat plasma (IV and oral), LC-MS/MS, non-compartmental analysis; assay type: in vivo, Wistar rats
Description: For intravenous (IV) treatment, Indo5 was dissolved in DMSO (solution, 1 mg/ml) and injected into the lateral tail vein of rats (1 mg/kg, n = 3). For intragastric treatment, Indo5 was dissolved in 5% CMC-Na (suspension, 20 mg/ml). The rats were orally administered with Indo5 (100 mg/kg, n = 3) using a 20-G gavage needle. All of the animals were given a standard diet 4 h after the dosing. Blood samples (approximately 400 μl) were collected from each rat and placed into heparinized tubes before the dosing, and at 5, 15, 30, 60, 120, 240, and 480 min after the dosing. Plasma (100 μl) was harvested by centrifuging blood samples at 3,600 g for 10 min at room temperature followed by immediate processing for the analyses.
Briefly, 400 μl acetonitrile was added to 100 μl rat plasma or tissue homogenate, vortexed for 30 s, and centrifuged at 10,000 g for 10 min at room temperature to precipitate proteins. Subsequently, the supernatant (40 μl) was introduced into the HPLC/MS system. Plasma or tissue concentrations of Indo5 were determined using HPLC-MS/MS validated for pharmacokinetics.
The plasma concentration–time data obtained after intravenous and intragastric administrations were subjected to non-compartmental analyses based on the statistical moment theory. Pharmacokinetic parameters were calculated using WinNorlin 5.2 (Certara; www.certara.com/). These parameters included the maximum plasma concentration (Cmax), time to reach Cmax (Tmax), elimination half-life (t1/2), area under the plasma concentration–time curve from time zero to infinity (AUC0–∞), mean residence time (MRT), and clearance (CL). The absolute oral bioavailability was calculated by dividing the AUCtot obtained from oral administration by the AUCtot obtained from IV administration, and the calculation was adjusted using the doses that had been administered via oral and IV routes.

[4] = system: TrkA; set-up: method as in Luo et al., 2019; conditions: ref Luo et al., 2019; read-out: half-maximal inhibitory concentration, TrkA kinase activity; cited from earlier work
[5] = system: TrkB; set-up: method as in Luo et al., 2019; conditions: ref Luo et al., 2019; read-out: half-maximal inhibitory concentration, TrkB kinase activity; cited from earlier work
[6] = Tissue-distribution study in rats; assay type: in vivo, Wistar rats
[7] = oral (p.o.) 100 mg/kg in CMC-Na suspension, n = 3

For `Cc1ccccc1NS(=O)(=O)c1ccc2c(c1)C(=Cc1nc3ccccc3[nH]1)C(=O)N2` [Indo5, 3-(1H-benzimidazol-2-methylene)-5-(2-methylphenylaminosulfo)-2-indolone], the “survival of mice with hepatic orthotopic tumors” value ([1]; hepatic orthotopic tumors) is given as “increases the survival”, the “growth of HCC cells in xenograft-transplanted mice” value ([1]; xenograft-transplanted mice) is given as “significantly decreases the growth of HCC cells” and the “histological analysis of liver tissue” value [2] is given as “no pathological changes”. For the same molecule, the “number and frequencies of immune cells in the liver (flow cytometry)” value [2] was “did not affect the number or frequencies of immune cells in the liver”, the Tmax ([3]; IV 1 mg/kg) was 1 min and the AUC0-t ([3]; IV 1 mg/kg in DMSO, n = 3) was 158.6 ± 27.9 ng·h/mL. For the same molecule, the “AUC0-∞” value ([3]; IV 1 mg/kg in DMSO, n = 3) was 163.4 ± 28.3 ng·h/mL, the CL ([3]; IV 1 mg/kg in DMSO, n = 3) was 6,121.6 ± 1,124.8 ml/h/kg and the Cmax ([3]; IV 1 mg/kg in DMSO, n = 3) was 1,565.3 ± 286.2 ng/ml. The MRT0-t ([3]; IV 1 mg/kg in DMSO, n = 3) was 10.8 ± 2.4 min, the “MRT0-∞” value ([3]; IV 1 mg/kg in DMSO, n = 3) was 15.6 ± 3.6 min and the Tmax ([3]; IV 1 mg/kg in DMSO, n = 3) was 1 min. For the same molecule, the t1/2 ([3]; IV 1 mg/kg in DMSO, n = 3) was 37.8 ± 6.6 min, the AUC0-t [3, 7] was 251.5 ± 43.5 ng·h/mL and the “AUC0-∞” value [3, 7] was 255.7 ± 44.9 ng·h/mL. The CL [3, 7] was 391056.4 ± 77,945.8 ml/h/kg, the Cmax [3, 7] was 54.7 ± 10.4 ng/mL and the MRT0-t [3, 7] was 172 ± 36.6 min. For the same molecule, the “MRT0-∞” value [3, 7] was 179 ± 37.8 min, the Tmax [3, 7] was 120 ± 28.8 min and the Vd [3, 7] was 706.349 ± 106.9412 L/kg. For the same molecule, the t1/2 [3, 7] was 75 ± 14.4 min, the IC50 [4] was 28 nM and the IC50 [5] was 25 nM. For the same molecule, the “crossing of blood–brain and blood–testes barriers” value [6] was “could not cross the blood–brain or blood–testes barriers”.
